Laboratory results as given in US9969738B2, “N-acyl-(3-substituted)-5,6,7,8-tetrahydro-[1,2,4]triazolo[4,3-a]pyrazines as selective NK-3 receptor antagonists, pharmaceutical composition, methods for use in NK-3 receptor-mediated disorders” (EUROSCREEN SA, priority 2013, dated 2018).

Assays:
[1] = biological target: T1, human NK-3 receptor (Homo sapiens (Human), UniProt P29371); experiment: Aequorin functional assay with human NK-3 receptor (antagonist testing); format: cell-based; conditions: CHO cells expressing human NK-3 receptor and apoaequorin; agonist NKA at EC80 (3 nM); read-out: hNK-3 - AEQ (antagonist IC50)
Procedure: Aequorin Assay with Human NK-3 Receptor
Changes in intracellular calcium levels are a recognized indicator of G protein-coupled receptor activity. The efficacy of compounds of the invention to inhibit NKA-mediated NK-3 receptor activation was assessed by an in vitro Aequorin functional assay. Chinese Hamster Ovary recombinant cells expressing the human NK-3 receptor and a construct that encodes the photoproteinapoaequorin were used for this assay. In the presence of the cofactor coelenterazine, apoaequorin emits a measurable luminescence that is proportional to the amount of intracellular (cytoplasmic) free calcium.
The antagonist activity of compounds of the invention is measured following pre-incubation (3 minutes) of the compound (at various concentrations) with the cells, followed by addition of the reference agonist (NKA) at a final concentration equivalent to the EC80 (3 nM) and recording of emitted light (FDSS 6000 Hamamatsu) over the subsequent 90-second period. The intensity of the emitted light is integrated using the reader software. Compound antagonist activity is measured based on the concentration-dependent inhibition of the luminescence response to the addition of Neurokinin A.
The IC50 values shown in table 2 indicate that compounds of the invention are potent NK-3 antagonist compounds.

[2] = biological target: T1, human NK-3 receptor; experiment: 3H-SB222200 binding competition assay with human NK-3 receptor; conditions: CHO cell membranes, 5 nM 3H-SB222200; Ki by Cheng-Prusoff; read-out: hNK-3 (Ki)
Procedure: The affinity of compounds of the invention for the human NK-3 receptor was determined by measuring the ability of compounds of the invention to competitively and reversibly displace a well-characterized NK-3 radioligand in a concentration-dependent manner.
^3H-SB222200 Binding Competition Assay with Human NK-3 Receptor
The ability of compounds of the invention to inhibit the binding of the NK-3 receptor selective antagonist ^3H-SB222200 was assessed by an in vitro radioligand binding assay. Membranes were prepared from Chinese hamster ovary recombinant cells stably expressing the human NK-3 receptor. The membranes were incubated with 5 nM ^3H-SB222200 (ARC) in a HEPES 25 mM/NaCl 0.1M/CaCl2 1 mM/MgCl2 5 mM/BSA 0.5%/Saponin 10 μg/ml buffer at pH 7.4 and various concentrations of compounds of the invention. The amount of ^3H-SB222200 bound to the receptor was determined after filtration by the quantification of membrane associated radioactivity using the TopCount-NXT reader (Packard).

[3] = biological target: human NK-1 receptor (Homo sapiens (Human), UniProt P25103); experiment: Selectivity assay: [3H] substance P binding to human NK-1 receptor; conditions: CHO cell membranes, 2 nM [3H] substance P; read-out: hNK-1 (Ki)
Procedure: (§1) Selectivity of the compounds of the invention was determined over the other human NK receptors, namely NK-1 and NK-2 receptors.
The affinity of compounds of the invention for the NK-1 receptor was evaluated in CHO recombinant cells which express the human NK-1 receptor. Membrane suspensions were prepared from these cells. The following radioligand: [^3H] substance P (PerkinElmer Cat#NET111520) was used in this assay. Binding assays were performed in a 50 mM Tris/5 mM MnCl2/150 mM NaCl/0.1% BSA at pH 7.4. Binding assays consisted of 25 μl of membrane suspension (approximately 5 μg of protein/well in a 96 well plate), 50 μl of compound or reference ligand (Substance P) at increasing concentrations (diluted in assay buffer) and 2 nM [^3H] substance P. The plate was incubated 60 min at 25° C. in a water bath and then filtered over GF/C filters (Perkin Elmer, 6005174, presoaked in 0.5% PEI for 2 h at room temperature) with a Filtration unit (Perkin Elmer). The radioactivity retained on the filters was measured by using the TopCount-NXT reader (Packard).

[4] = biological target: human NK-2 receptor (Homo sapiens (Human), UniProt P21452); experiment: Selectivity assay: [125I]-Neurokinin A binding to human NK-2 receptor; conditions: CHO cell membranes, 0.1 nM [125I]-Neurokinin A; read-out: hNK-2 (Ki)
Procedure: as §1
The affinity of compounds of the invention for the NK-2 receptor was evaluated in CHO recombinant cells which express the human NK-2 receptor. Membrane suspensions were prepared from these cells. The following radioligand [^125I]-Neurokinin A (PerkinElmer Cat#NEX252) was used in this assay. Binding assays were performed in a 25 mM HEPES/1 mM CaCl2/5 mM MgCl2/0.5% BSA/10 μg/ml saponin, at pH 7.4. Binding assays consisted of 25 μl of membrane suspension (approximately 3.75 μg of protein/well in a 96 well plate), 50 μl of compound or reference ligand (Neurokinin A) at increasing concentrations (diluted in assay buffer) and 0.1 nM [^125I]-Neurokinin A. The plate was incubated 60 min at 25° C. in a water bath and then filtered over GF/C filters (Perkin Elmer, 6005174, presoaked in assay buffer without saponine for 2 h at room temperature) with a Filtration unit (Perkin Elmer). The radioactivity retained on the filters was measured by using the TopCount-NXT reader (Packard).

[5] = system: circulating LH levels; experiment: Castrated male rat model, circulating levels of luteinizing hormone (LH), oral dosing; format: in vivo; conditions: castrated male SD rats, single oral dose less than or equal to 30 mg/kg, p<0.05
Procedure: In Vivo Assay to Assess Compound Activity in Rat (Oral Dosing) The effect of compounds of the invention to inhibit luteinizing hormone (LH) secretion is determined by the following biological studies. Castrated Male Rat Model to Assess the Effect of Compound of Invention on Circulating Levels of Luteinizing Hormone (LH) In humans and rodents, castration is well-precedented to permit heightened, persistent GnRH signaling and consequent elevation of circulating LH. Thus, a castrated rat model is used to provide a broad index for measurement of LH inhibition as a marker of test compound inhibition of the GnRH signaling pathway. Castrated adult male Sprague-Dawley (SD) rats (150-175 g,) were purchased from Janvier (St Berthevin, France). All animals were housed 2 per cage in a temperature-controlled room (22±2° C.) and 50±5% relative humidity with a 12 hour/12 hour light/dark cycles (lights off at 6 h00 pm). The animals were allowed 3 weeks of postoperative recovery prior to study. Animals were handled on a daily basis. Standard diet and tap water were provided ad libitum. Animal cage litters were changed once a week. On the study day, animals were acclimated to the procedure room for a period of one hour prior to the initiation of the experiment. […] Serum LH levels were determined using radioimmunoas say kit from RIAZEN—Rat LH, Zentech (Liège, Belgium). […]

[6] = biological target: hERG channel (Homo sapiens (Human), UniProt Q12809); experiment: hERG inhibition assay (manual patch-clamp, HEK 293 cells); format: cell-based; conditions: 5 minutes of exposure, read-out: CardioSafety (hERG IC50)
Procedure: IKr current inhibition accounts for the vast majority of known cases of drug-induced QT-prolongation. […] Whole-cell currents (acquisition by manual patch-clamp) elicited during a voltage pulse were recorded in baseline conditions and following application of tested compounds (5 minutes of exposure). The concentrations of tested compounds (0.3 μM; 3 μM; 10 μM; 30 μM) reflect a range believed to exceed the concentrations at expected efficacy doses in preclinical models. […] The current density recorded were normalized against the baseline conditions and corrected for solvent effect and time-dependent current run-down using experimental design in test compound free conditions.

[7] = Determination of plasma protein binding (rapid equilibrium dialysis); format: in vitro ADME; conditions: bound drug fraction to plasma protein; equilibrium dialysis 4 hours at 37° C.
Description: Determination of Plasma Protein Binding
The pharmacokinetic and pharmacodynamic properties of chemicals/drugs are largely a function of the reversible binding of chemicals to plasma or serum proteins. […] Consequently, the extent of the plasma protein binding (PPB) of a compound influences its action as well as its distribution and elimination.
The determination of plasma protein binding (PPB) of a compound is enabled by equilibrium dialysis, an accepted and standard method for reliable estimation of the non-bound drug fraction in plasma. RED (Rapid Equilibrium Dialysis) device insert is made of two side-by-side chambers separated by an O-ring-sealed vertical cylinder of dialysis membrane (MWCO ˜8,000). […] After 4 hours incubation at 37° C. under shaking, an aliquot is removed from each chamber and analyzed by a LC-MS/MS procedure enables the determination of both free and bound drug.
The “free fraction” may be calculated as 100%−% rPPB (i.e. the complementary percentage of that disclosed in Table 4, corresponding to the drug concentration that is unbound and therefore available to engage biological target and elicit pharmacological activity).

T1 sequence (P29371 whole entry): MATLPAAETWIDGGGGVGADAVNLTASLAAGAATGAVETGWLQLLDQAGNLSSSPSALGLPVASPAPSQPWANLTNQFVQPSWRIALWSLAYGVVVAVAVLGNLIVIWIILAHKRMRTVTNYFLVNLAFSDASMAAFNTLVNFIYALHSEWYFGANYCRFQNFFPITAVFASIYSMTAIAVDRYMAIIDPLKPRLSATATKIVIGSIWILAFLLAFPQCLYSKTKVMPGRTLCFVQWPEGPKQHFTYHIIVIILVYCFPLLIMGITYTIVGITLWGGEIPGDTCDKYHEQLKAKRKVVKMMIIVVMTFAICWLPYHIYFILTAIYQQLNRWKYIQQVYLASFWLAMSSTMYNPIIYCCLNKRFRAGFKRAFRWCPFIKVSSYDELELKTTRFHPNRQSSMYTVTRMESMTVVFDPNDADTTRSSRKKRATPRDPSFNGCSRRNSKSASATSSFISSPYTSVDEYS
Sequence of human NK-2 receptor (P21452 whole entry): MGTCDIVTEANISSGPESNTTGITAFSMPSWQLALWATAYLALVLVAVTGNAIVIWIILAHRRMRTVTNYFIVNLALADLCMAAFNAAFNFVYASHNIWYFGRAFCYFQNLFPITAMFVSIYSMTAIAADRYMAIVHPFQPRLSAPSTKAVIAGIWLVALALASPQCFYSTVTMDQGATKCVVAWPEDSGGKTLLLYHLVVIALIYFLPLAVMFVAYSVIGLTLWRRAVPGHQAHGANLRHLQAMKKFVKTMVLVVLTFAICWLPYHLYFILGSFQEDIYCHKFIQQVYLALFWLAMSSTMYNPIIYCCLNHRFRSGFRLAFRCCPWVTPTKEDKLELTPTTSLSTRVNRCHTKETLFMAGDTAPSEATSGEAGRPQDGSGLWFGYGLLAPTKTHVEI
Sequence of human NK-1 receptor (P25103 whole entry): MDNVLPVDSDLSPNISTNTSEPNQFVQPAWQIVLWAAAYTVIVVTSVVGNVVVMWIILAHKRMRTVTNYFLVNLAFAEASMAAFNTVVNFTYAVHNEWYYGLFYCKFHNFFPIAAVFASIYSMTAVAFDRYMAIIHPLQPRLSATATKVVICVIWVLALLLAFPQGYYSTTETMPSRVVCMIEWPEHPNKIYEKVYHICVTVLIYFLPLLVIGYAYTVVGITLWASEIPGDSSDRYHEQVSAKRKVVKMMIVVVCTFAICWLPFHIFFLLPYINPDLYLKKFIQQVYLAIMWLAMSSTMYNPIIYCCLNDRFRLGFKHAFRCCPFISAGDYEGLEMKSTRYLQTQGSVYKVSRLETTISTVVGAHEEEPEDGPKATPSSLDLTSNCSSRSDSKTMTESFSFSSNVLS
Sequence of hERG channel (Q12809 whole entry): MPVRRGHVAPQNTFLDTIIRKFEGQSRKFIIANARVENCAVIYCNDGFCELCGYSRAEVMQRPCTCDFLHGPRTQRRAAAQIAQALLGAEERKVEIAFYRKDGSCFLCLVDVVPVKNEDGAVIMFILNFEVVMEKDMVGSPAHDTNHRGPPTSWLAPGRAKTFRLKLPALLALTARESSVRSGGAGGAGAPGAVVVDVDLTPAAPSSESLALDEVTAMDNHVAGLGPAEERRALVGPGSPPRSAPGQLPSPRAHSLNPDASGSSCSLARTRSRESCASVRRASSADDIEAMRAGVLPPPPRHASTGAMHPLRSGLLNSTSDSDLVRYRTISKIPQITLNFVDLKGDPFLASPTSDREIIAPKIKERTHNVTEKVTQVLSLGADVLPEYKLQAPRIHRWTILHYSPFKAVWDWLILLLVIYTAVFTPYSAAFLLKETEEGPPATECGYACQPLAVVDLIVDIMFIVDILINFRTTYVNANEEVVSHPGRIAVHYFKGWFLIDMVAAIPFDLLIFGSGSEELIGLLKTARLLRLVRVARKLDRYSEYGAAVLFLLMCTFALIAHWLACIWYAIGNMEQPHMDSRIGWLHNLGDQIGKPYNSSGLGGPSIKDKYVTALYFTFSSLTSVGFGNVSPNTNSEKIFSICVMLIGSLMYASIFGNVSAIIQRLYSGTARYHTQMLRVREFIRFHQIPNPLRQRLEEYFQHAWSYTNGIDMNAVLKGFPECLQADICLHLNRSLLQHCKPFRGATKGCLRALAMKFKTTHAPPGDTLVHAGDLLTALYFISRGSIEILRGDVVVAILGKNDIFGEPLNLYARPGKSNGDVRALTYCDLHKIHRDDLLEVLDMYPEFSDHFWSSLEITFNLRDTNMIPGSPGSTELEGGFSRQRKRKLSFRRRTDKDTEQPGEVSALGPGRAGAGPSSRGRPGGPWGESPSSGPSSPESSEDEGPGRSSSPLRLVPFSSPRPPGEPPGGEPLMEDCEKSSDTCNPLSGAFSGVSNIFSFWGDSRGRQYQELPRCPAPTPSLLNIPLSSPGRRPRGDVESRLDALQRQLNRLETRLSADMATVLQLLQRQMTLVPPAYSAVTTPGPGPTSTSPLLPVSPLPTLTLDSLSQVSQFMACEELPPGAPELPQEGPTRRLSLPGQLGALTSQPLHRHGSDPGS

IC50 [1] [nM]	Ki [2] [nM]	Ki [3] [µM]	Ki [4] [µM]	Exposure (% rPPB) [7] [%]	SMILES	suppression of circulating LH levels [5]	IC50 [6] [µM]
180	140	> 30	> 30	–	Cc1nsc(-c2nnc3n2CCN(C(=O)c2ccc(F)cc2)C3)n1 [Compound 1, (4-fluorophenyl)(3-(3-methyl-1,2,4-thiadiazol-5-yl)-5,6-dihydro-[1,2,4]triazolo[4,3-a]pyrazin-7(8H)-yl)methanone]	significantly suppressed circulating LH levels	–
140	99	> 30	> 30	49	Cc1nsc(-c2nnc3n2CCN(C(=O)c2ccc(Cl)cc2)C3)n1 [Compound 2, (4-chlorophenyl)(3-(3-methyl-1,2,4-thiadiazol-5-yl)-5,6-dihydro-[1,2,4]triazol[4,3-a]pyrazin-7(8H)-yl)methanone]	–	35
140	93	> 30	> 30	54	Cc1nsc(-c2nnc3n2CCN(C(=O)c2ccc(Cl)c(F)c2)C3)n1 [Compound 3, (4-chloro-3-fluorophenyl)(3-(3-methyl-1,2,4-thiadiazol-5-yl)-5,6-dihydro-[1,2,4]triazol[4,3-a]pyrazin-7(8H)-yl)methanone]	–	–
200	130	> 30	> 30	52	Cc1nsc(-c2nnc3n2CCN(C(=O)c2ccc(F)c(Cl)c2)C3)n1 [Compound 4, (3-chloro-4-fluorophenyl)(3-(3-methyl-1,2,4-thiadiazol-5-yl)-5,6-dihydro-[1,2,4]triazol[4,3-a]pyrazin-7(8H)-yl)methanone]	–	–
250	170	> 30	> 30	28	Cc1nsc(-c2nnc3n2CCN(C(=O)c2ccc(F)c(F)c2)C3)n1 [Compound 5, (3,4-difluorophenyl)(3-(3-methyl-1,2,4-thiadiazol-5-yl)-5,6-dihydro-[1,2,4]triazol[4,3-a]pyrazin-7(8H)-yl)methanone]	–	–
330	170	> 30	> 30	27	Cc1nsc(-c2nnc3n2CCN(C(=O)c2cc(F)c(F)c(F)c2)C3)n1 [Compound 6, (3-(3-methyl-1,2,4-thiadiazol-5-yl)-5,6-dihydro-[1,2,4]triazolo[4,3-a]pyrazin-7(8H)-yl)(3,4,5-trifluorophenyl)methanone]	–	–
470	240	> 30	> 30	25	Cc1nsc(-c2nnc3n2CCN(C(=O)c2ccc(F)c(F)c2F)C3)n1 [Compound 7, (3-(3-methyl-1,2,4-thiadiazol-5-yl)-5,6-dihydro-[1,2,4]triazolo[4,3-a]pyrazin-7(8H)-yl)(2,3,4-trifluorophenyl)methanone]	–	–
